Measurements: patent US20230149336A1, “PREPARATION FOR USE AS ANTIOXIDANT” (Evonik Operations GmbH, priority 2020, published 2023)
Entries after “also recorded” stand apart in the source; their conditions may differ.

Experiments:
mice mesenteric arteries [1] = assay: Angiotensin II-induced ROS formation (DHE, DHR123); format: cell-based; conditions: 50 μg/mL for 1 hour, then Angiotensin II 15 minutes; DHE and DHR123; mixtures ratio 1:1
Description: Dihydroethidium (DHE, Life Technologies) was used to evaluate production of reactive oxygen species (ROS) in mouse mesenteric arteries, as previously described. Briefly, vessels were incubated with 5 μM of DHE for 20 min and subsequently observed under a fluorescence microscope (Zeiss). Images were acquired by a digital camera system (Olympus Soft Imaging Solutions). […] After treatment, vessels were incubated with Krebs solution containing 5 μM DHR123 for 30 min at 37° C., and then washed two times with PBS prior to fluorescence measurement using a fluorescence microplate reader (TECAN infinite 200 Pro).
To investigate the capability of Healthberry 865® and the single anthocyanins contained on the modulation of oxidative stress, several methodological approaches were performed measuring both, total anti reactive oxygen species (ROS) capacity and their specific action on the modulation of the main machinery of ROS production, the activity of NADPH oxidase enzyme. […] The antioxidant vascular actions of single anthocyanins contained in Healthberry 865®: Delphinidin-3-rutinoside (D3-rut), Cyanidin-3-rutinoside (C3-rut), Delphinidin glucoside (DP3-glu), Cyanidin-3-glucoside (C3-glu), Petunidin-3-glucoside (PT3-glu), Delphinidin galactoside (DP3-gal), Peonidin-3-galactoside (PEO3-gal), Delphinidin-3-arabinoside (DP3-ara), Malvidin-3-galactoside (MAL3-gal), Malvidin-3-glucoside (MAL3-glu), Cyanidin-3-galactoside (C3-gal) and Cyanidin-3-arabinopyranoside (C3-arapy) were analyzed.
(§1) Vessels were pre-treated with single anthocyanins (50 μg/mL) for 1 hours and then stimulated with Angiotensin II for 15 minutes prior to the acquisition. (A) Measurement of ROS production by DHR123 in vessels treated with single anthocyanins and combination of anthocyanins mixed with a ratio 1:1. (B) NADPH oxidase activity in mesenteric arteries exposed to HB or single anthocyanins or combination of anthocyanins mixed with a ratio 1:1. Data are expressed as increase of chemiluminescence per minute.

NADPH oxidase (NOX) = assay: NADPH oxidase activity after stimulation with Angiotensin II; format: cell-based, mice; conditions: chemiluminescence per minute, mixtures ratio 1:1
Description: Moreover, the analysis of NADPH oxidase (NOX) activity after stimulation with Angiotensin II, a gold-standard inducer of NOX activation was performed.
as §1

mice mesenteric arteries [2] = assay: Vascular reactivity: vasorelaxation of phenylephrine-precontracted mice mesenteric arteries; format: cell-based; conditions: increasing doses (5-300 μg/mL), phenylephrine-precontracted vessels
Description: Second-order branches of the mesenteric arterial tree were removed from mice to perform vascular studies. […] First, an analysis of vascular reactivity curves was performed.

Compound | Angiotensin II-induced ROS formation (mice mesenteric arteries [1]) | NADPH oxidase (NOX) activity (NADPH oxidase (NOX)) | vasorelaxant action (mice mesenteric arteries [2])
OC[C@H]1O[C@@H](Oc2cc3c(O)cc(O)cc3[o+]c2-c2ccc(O)c(O)c2)[C@H](O)[C@@H](O)[C@@H]1O [C3-glu, Cyanidin-3-glucoside] | able to reproduce the antioxidant action of Healthberry 865® | able to reduce NOX activity; also recorded: the most powerful anthocyanins closer to the potent effect of Healthberry 865® | –
OC[C@H]1O[C@@H](Oc2cc3c(O)cc(O)cc3[o+]c2-c2cc(O)c(O)c(O)c2)[C@H](O)[C@@H](O)[C@@H]1O [DP3-glu, Delphinidin-3-glucoside] | able to reproduce the antioxidant action of Healthberry 865® | able to reduce NOX activity | –
NCCCC[C@H](N)C(=O)O [L-Lysine] | – | – | did not evoke any vasorelaxant effect
Peonidin-3-galactoside [PEO3-gal] | able to reproduce the antioxidant action of Healthberry 865® | able to reduce NOX activity | –
COc1cc(-c2[o+]c3cc(O)cc(O)c3cc2O[C@@H]2O[C@H](CO)[C@@H](O)[C@H](O)[C@H]2O)cc(OC)c1O [MAL3-glu, Malvidin-3-glucoside] | able to reproduce the antioxidant action of Healthberry 865® | able to reduce NOX activity; also recorded: the most powerful anthocyanins closer to the potent effect of Healthberry 865® | –
C[C@@H]1O[C@@H](OC[C@H]2O[C@@H](Oc3cc4c(O)cc(O)cc4[o+]c3-c3ccc(O)c(O)c3)[C@H](O)[C@@H](O)[C@@H]2O)[C@H](O)[C@H](O)[C@H]1O [C3-rut, Cyanidin-3-rutinoside] | able to reproduce the antioxidant action of Healthberry 865® | able to reduce NOX activity | –
COc1cc(-c2[o+]c3cc(O)cc(O)c3cc2O[C@@H]2O[C@H](CO)[C@H](O)[C@H](O)[C@H]2O)cc(OC)c1O [MAL3-gal, Malvidin-3-galactoside] | able to reproduce the antioxidant action of Healthberry 865® | able to reduce NOX activity | –
